This note sets out measurements from ChEMBL document CHEMBL3414465, “Discovery of novel P1 groups for coagulation factor VIIa inhibition using fragment-based screening” (J Med Chem, 2015).

Sequence of Coagulation factor VII/tissue factor (P08709 61-212 limits assumed): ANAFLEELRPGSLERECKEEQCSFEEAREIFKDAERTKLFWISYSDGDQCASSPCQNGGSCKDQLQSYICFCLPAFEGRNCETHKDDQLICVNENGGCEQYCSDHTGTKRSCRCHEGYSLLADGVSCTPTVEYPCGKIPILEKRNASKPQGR
Sequence of Coagulation factor VII/tissue factor (P08709 213-466 limits assumed): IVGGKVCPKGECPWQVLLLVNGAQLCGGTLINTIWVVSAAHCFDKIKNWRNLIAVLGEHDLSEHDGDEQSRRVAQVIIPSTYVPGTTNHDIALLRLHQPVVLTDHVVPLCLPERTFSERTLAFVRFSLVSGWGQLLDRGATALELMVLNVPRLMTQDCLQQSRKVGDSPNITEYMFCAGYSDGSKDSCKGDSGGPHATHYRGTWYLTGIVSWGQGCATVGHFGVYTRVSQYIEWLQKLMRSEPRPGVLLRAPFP
Sequence of Coagulation factor VII/tissue factor (P13726 33-295 partner limits assumed): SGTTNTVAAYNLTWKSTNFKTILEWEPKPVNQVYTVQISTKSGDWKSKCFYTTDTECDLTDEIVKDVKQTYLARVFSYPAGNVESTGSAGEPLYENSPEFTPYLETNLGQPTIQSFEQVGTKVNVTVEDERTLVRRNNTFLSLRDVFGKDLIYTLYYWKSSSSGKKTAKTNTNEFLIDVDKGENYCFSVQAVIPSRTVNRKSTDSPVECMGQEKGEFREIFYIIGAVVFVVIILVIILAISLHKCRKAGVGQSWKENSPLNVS

One data set has as its target Coagulation factor VII/tissue factor (Homo sapiens, UniProt P08709). As to the kind of experiment: Inhibition of human soluble tissue factor/factor VIIa expressed in Origami B (DE3) using D-Ile-Pro-Arg-pNA as substrate after 30 mins by spectrophotometric analysis.
Settings: not given
A word on the Ki: it is a measure of affinity in units of concentration, obtained from inhibition or displacement. Consider `OCc1ccc(Cl)cc1Cl` [DICHLOROBENZYL ALCOHOL], for which the affinity corresponds to a Ki of 13 mM. That is a millimolar value.
Still for that read-out and setting: next, `COc1cc(Cl)ccc1O`: 16 mM.
`COc1cc(Br)ccc1O` registered a Ki of 13 mM. The Ki values of the last two molecules are within 1.5-fold of each other.
The molecule `COC(=O)c1cccc2[nH]ccc12` had a Ki of 13 mM. This counts as millimolar.
On the same count and under the same terms, next, `Clc1ccc2[nH]nnc2c1`: 8.7 mM; `O=C(O)c1cc2cc(Cl)ccc2[nH]1` [5-CHLOROINDOLE-2-CARBOXYLIC ACID]: 3.5 mM.
With `O=C(O)c1c[nH]c2ccc(Cl)cc12`, the affinity, expressed as Ki, was 5.7 mM.
`Clc1ccc2[nH]ccc2c1` registered a Ki of 4.3 mM.
In turn, `COC(=O)Nc1ccc(S(=O)(=O)C(C)C)c([C@H]2CCCN2C(=O)[C@H](Nc2ccc3c(c2)C(=O)NCC3)c2cc(OC)c(OC)cc2F)c1` came in with a Ki of 0.00013 mM.
In the case of `NC(=O)c1cccnc1` [NIACINAMIDE], the Ki amounted to 8 mM. Compared with the last molecule, the Ki is about 62000-fold higher.
The same measure, in the same setting: next, `CC(O)c1cccc2ccccc12` (centres undefined): 16 mM.
Still for that read-out and setting: next, `N=C(N)c1ccccc1` [BENZAMIDINE]: 0.24 mM.

System in a further data set: not listed separately
As to the kind of experiment: Permeability of the compound after 4 hrs by PAMPA. The data set is classed as ADME. As to conditions: read-out: permeability.
On to `COC(=O)Nc1ccc(S(=O)(=O)C(C)C)c([C@H]2CCCN2C(=O)[C@H](Nc2ccc3c(c2)C(=O)NCC3)c2cc(OC)c(OC)cc2F)c1`, for which the Papp at 4 h turned out to be 1.8 ×10⁻⁶ cm/s.

The test system of the next data set is Plasma. Description: Anticoagulant activity in factor VII-deficient human plasma assessed as concentration required to prolong clotting time by two-fold. The data set is classed as functional.
Settings: not given
With `COC(=O)Nc1ccc(S(=O)(=O)C(C)C)c([C@H]2CCCN2C(=O)[C@H](Nc2ccc3c(c2)C(=O)NCC3)c2cc(OC)c(OC)cc2F)c1`, the 2PT was 160 µM.
